The target of one experiment is BCLXL WT (Homo sapiens (Human), UniProt Q07817). Briefly: TR-FRET competitive binding assay, BCLXL WT. Particulars: for Ki: BCLXL WT, Ki determined from IC50, read-out: TR_FRET EKI BclxL; for TR_FRET EKI BCLxL/WT selectivty ratio: ratio Ki BCLxL / Ki BCL2 WT. In a few lines:
(§1)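 Competitive TR-FRET displacement of fluorescein-PUMA peptide (2 or 20 nM) from 0.5 nM terbium-labelled N-terminal Halo-fusion BCL2 (1-207, wild type or mutant) or BCLXL (2-196), expressed in E. coli. Buffer 50 mM Hepes pH 7.5, 150 mM NaCl, 5% DMSO; 2 h at 23°C. 520/495 nm ratio fitted over 11 points for IC50, converted to Ki.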
A general note: TR-FRET usually uses a lanthanide donor and a delayed reading to cut background.

Another experiment deals with KMS-12-PE Bcl-2 WT. The experiment is described as follows: In vitro cytotoxicity CellTiter-Glo 48 h, KMS-12-PE Bcl-2 WT. It counts as cell-based. Particulars: Homo sapiens, KMS-12-PE, C50 = concentration needed to reach 50% of the cellular viability. In a few lines:
(§2)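 Viability measured by CellTiter-Glo luminescence after 48 h compound exposure (11-point curve, 37 °C, 5% CO2). Cells: KMS-12-PE transduced with wild-type or G101V-mutant Bcl-2, FACS-sorted for TagRFP. Reported C50 = concentration reaching 50% cellular viability.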
For orientation: ATP-based viability assays read luminescence as a measure of living cells.

Another experiment addresses BCL2 WT (Homo sapiens (Human), UniProt P10415). The experiment is described as follows: TR-FRET competitive binding assay, BCL2 WT. Particulars: Ki determined from IC50, read-out: TR_FRET EKI_Bcl2 WT. In a few lines:
as §1

Experiment [1] concerns the target BCL2 G101V (Homo sapiens, UniProt P10415, G101V). The experiment is described as follows: TR-FRET competitive binding assay, BCL2 G101V. Particulars: BCL2 G101V; Ki determined from IC50; read-out: TR_FRET EKI_Bcl2 G101V. A digest of the protocol: as §1
Experiment [2] deals with BCL2 G101V. Briefly: TR-FRET competitive binding assay, BCL2 G101V. The note with it: ratio Ki BCL2 G101V / Ki BCL2 WT. Details: species or system human. In a few lines:
as §1

The target in the next experiment is BCL2 D111A (Homo sapiens, UniProt P10415, D111A). Briefly: TR-FRET competitive binding assay, BCL2 D111A. Particulars: Ki determined from IC50, read-out: TR_FRET EKI_Bcl2 D111A. A digest of the protocol: as §1
The next experiment has as its target BCL2 F104I (Homo sapiens, UniProt P10415, F104I). The experiment is described as follows: TR-FRET competitive binding assay, BCL2 F104I. Particulars: Ki determined from IC50, read-out: TR_FRET EKI_Bcl2 F104I. In a few lines: as §1
A further experiment relates to KMS-12-PE Bcl-2 G101V. Briefly: In vitro cytotoxicity CellTiter-Glo 48 h, KMS-12-PE Bcl-2 G101V. It counts as cell-based. Particulars: for Ratio (G101V/WT): C50 KMS-12-PE Bcl-2 G101V over C50 KMS-12-PE Bcl-2 WT; for IC50: Homo sapiens, KMS-12-PE, 48 h, CellTiter-Glo, C50 = concentration needed to reach 50% of the cellular viability. In a few lines:
as §2

The target in the next experiment is BCL2 D103Y (Homo sapiens, UniProt P10415, D103Y). Briefly: TR-FRET competitive binding assay, BCL2 D103Y. Particulars: Ki determined from IC50, read-out: TR_FRET EKI_Bcl2 D103Y. A digest of the protocol:
as §1

The source of these data is US20250179047A1, “5-[7-(3,4-DIHYDRO-1H-ISOQUINOLINE-2-CARBONYL)-1,2,3,4 TETRAHYDROISOQUINOLIN-6-YL]-1H-PYRROLE-3-CARBOXAMIDE DERIVATIVES, PHARMACEUTICAL COMPOSITIONS CONTAINING THEM AND THEIR USES AS PRO-APOPTOTIC AGENTS” (LES LABORATOIRES SERVIER, priority 2022, published 2025).

BCLXL WT, sequence (Q07817 other isoform, or with tags, fused parts or gaps): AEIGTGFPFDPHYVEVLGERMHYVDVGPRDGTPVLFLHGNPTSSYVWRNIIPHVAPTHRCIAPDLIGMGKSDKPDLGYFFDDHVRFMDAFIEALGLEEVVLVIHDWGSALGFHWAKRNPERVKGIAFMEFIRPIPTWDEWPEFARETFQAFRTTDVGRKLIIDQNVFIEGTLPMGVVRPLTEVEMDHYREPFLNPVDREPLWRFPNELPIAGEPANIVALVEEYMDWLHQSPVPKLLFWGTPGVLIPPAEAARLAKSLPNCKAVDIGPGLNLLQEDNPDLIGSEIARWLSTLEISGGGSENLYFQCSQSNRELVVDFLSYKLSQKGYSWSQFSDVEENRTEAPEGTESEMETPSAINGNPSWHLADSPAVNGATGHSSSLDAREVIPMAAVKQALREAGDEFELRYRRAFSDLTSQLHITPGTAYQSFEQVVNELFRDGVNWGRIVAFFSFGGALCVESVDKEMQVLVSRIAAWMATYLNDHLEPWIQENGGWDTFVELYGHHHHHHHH

Consider `Cc1c(N(C(=O)c2cc(-c3cc4c(cc3C(=O)N3Cc5ccccc5C[C@H]3CN3CCCCC3)CN(C(=O)Cc3ccc(Cl)cc3F)CC4)n(C)c2C)c2ccc(O)cc2)cc(C#N)n1C` [Example 44, 5-{2-[2-(4-chloro-2-fluorophenyl)acetyl]-7-{[(3S)-3-(piperidin-1-ylmethyl)-3,4-dihydro-1H-isoquinolin-2-yl]carbonyl}-3,4-dihydro-1H-isoquinolin-6-yl}-N-(5-cyano-1,2-dimethylpyrrol-3-yl)-N-(4-hydroxyphenyl)-1,2-dimethylpyrrole-3-carboxamide], for which the Ki on BCLXL WT was determined as 2.2 nM; on BCL2 WT it was 0.06 nM; on BCL2 G101V [1] it was 0.5 nM; at BCL2 D111A, 0.24 nM; at BCL2 F104I, 1.34 nM; at BCL2 D103Y, 0.35 nM. In addition, the “TR_FRET EKI BCLxL/WT selectivty ratio” value at BCLXL WT is 36.1. Also, the IC50 in the experiment with KMS-12-PE Bcl-2 WT amounted to 0.0073 µM; in the experiment on KMS-12-PE Bcl-2 G101V it was 0.0886 µM. The “TR_FRET EKI G101V/WT selectivty ratio” value in the experiment with BCL2 G101V [2] is given as 8.5. Besides, the “Ratio (G101V/WT)” value in the experiment with KMS-12-PE Bcl-2 G101V came to 12.2.
For the compound `Cc1c(N(C(=O)c2cc(-c3cc4c(cc3C(=O)N3Cc5ccccc5C[C@H]3CN3C[C@H]5C[C@H]5C3)CN(C(=O)Cc3ccc(OCCN5CCOCC5)cc3F)CC4)n(C)c2C)c2ccc(O)cc2)cc(C#N)n1C` [Example 120, 5-{7-[(3S)-3-{[cis-3-azabicyclo[3.1.0]hexan-3-yl]methyl}-1,2,3,4-tetrahydroisoquinoline-2-carbonyl]-2-(2-{2-fluoro-4-[2-(morpholin-4-yl)ethoxy]phenyl}acetyl)-1,2,3,4-tetrahydroisoquinolin-6-yl}-N-(5-cyano-1,2-dimethyl-1H-pyrrol-3-yl)-N-(4-hydroxyphenyl)-1,2-dimethyl-1H-pyrrole-3-carboxamide], the Ki was 5.3 nM at BCLXL WT; 0.1 nM at BCL2 WT; 0.5 nM on BCL2 G101V [1]; 0.3 nM on BCL2 D111A; 0.37 nM on BCL2 F104I; 0.21 nM at BCL2 D103Y. Besides, on BCLXL WT, the “TR_FRET EKI BCLxL/WT selectivty ratio” value is listed as 53.0. The IC50 in the experiment with KMS-12-PE Bcl-2 WT stood at 0.0032 µM; in the experiment on KMS-12-PE Bcl-2 G101V, 0.0186 µM. In addition, the “TR_FRET EKI G101V/WT selectivty ratio” value with BCL2 G101V [2] was determined as 5.2. In the experiment with KMS-12-PE Bcl-2 G101V, the “Ratio (G101V/WT)” value amounted to 5.83.
`Cc1c(N(C(=O)c2cc(-c3cc4c(cc3C(=O)N3Cc5ccccc5C[C@H]3CN3CCC[C@@H](C)C3)CN(C(=O)Cc3ccc(OCCN5CCOCC5)cc3F)CC4)n(C)c2C)c2ccc(O)cc2)cc(C#N)n1C` [Example 124, N-(5-cyano-1,2-dimethyl-1H-pyrrol-3-yl)-5-[2-(2-{2-fluoro-4-[2-(morpholin-4-yl)ethoxy]phenyl}acetyl)-7-[(3S)-3-{[(3R)-3-methylpiperidin-1-yl]methyl}-1,2,3,4-tetrahydroisoquinoline-2-carbonyl]-1,2,3,4-tetrahydroisoquinolin-6-yl]-N-(4-hydroxyphenyl)-1,2-dimethyl-1H-pyrrole-3-carboxamide]: the Ki on BCLXL WT came to 5.8 nM; at BCL2 WT, 0.12 nM; on BCL2 G101V [1] it was 0.7 nM; on BCL2 D111A, 0.28 nM; on BCL2 F104I it was 0.34 nM; at BCL2 D103Y, 0.58 nM. In addition, the “TR_FRET EKI BCLxL/WT selectivty ratio” value on BCLXL WT came to 48.3. In addition, the IC50 with KMS-12-PE Bcl-2 WT came out at 0.0041 µM; in the experiment on KMS-12-PE Bcl-2 G101V, 0.0231 µM. Also, the “TR_FRET EKI G101V/WT selectivty ratio” value with BCL2 G101V [2] came to 5.8. The “Ratio (G101V/WT)” value in the experiment with KMS-12-PE Bcl-2 G101V is listed as 5.62.
For the compound `Cc1c(N(C(=O)c2cc(-c3cc4c(cc3C(=O)N3Cc5ccccc5C[C@H]3C)CN(C(=O)C(F)(F)c3ccccc3)CC4)n(C)c2C)c2ccc(O)cc2)cc(C#N)n1C` [Example 18, N-(5-cyano-1,2-dimethylpyrrol-3-yl)-5-[2-(2,2-difluoro-2-phenylacetyl)-7-{[(3R)-3-methyl-3,4-dihydro-1H-isoquinolin-2-yl]carbonyl}-3,4-dihydro-1H-isoquinolin-6-yl]-N-(4-hydroxyphenyl)-1,2-dimethylpyrrole-3-carboxamide], the Ki at BCLXL WT is 30.2 nM; on BCL2 WT, 0.3 nM; on BCL2 G101V [1], 4.2 nM; at BCL2 D111A, 2.65 nM; on BCL2 F104I, 53.5 nM; at BCL2 D103Y, 1.23 nM. The “TR_FRET EKI BCLxL/WT selectivty ratio” value at BCLXL WT was 100.7. Moreover, the IC50 in the experiment on KMS-12-PE Bcl-2 WT is 0.0055 µM; in the experiment with KMS-12-PE Bcl-2 G101V, 0.0477 µM. The “TR_FRET EKI G101V/WT selectivty ratio” value with BCL2 G101V [2] worked out at 14.0. Besides, the “Ratio (G101V/WT)” value in the experiment with KMS-12-PE Bcl-2 G101V was 8.67.
In the case of `COc1ccc(N(C(=O)c2cc(-c3cc4c(cc3C(=O)N3Cc5ccccc5C[C@H]3C)CN(C(=O)Cc3ccc(OCCN5CCOCC5)cc3)CC4)n(C)c2C)c2ccc(O)cc2)cc1C#N` [Example 81, N-(3-cyano-4-methoxyphenyl)-N-(4-hydroxyphenyl)-1,2-dimethyl-5-(7-{[(3R)-3-methyl-3,4-dihydro-1H-isoquinolin-2-yl]carbonyl}-2-(2-{4-[2-(morpholin-4-yl)ethoxy]phenyl}acetyl)-3,4-dihydro-1H-isoquinolin-6-yl)pyrrole-3-carboxamide], the Ki at BCLXL WT amounted to 5.3 nM; on BCL2 WT it was 0.19 nM; on BCL2 G101V [1], 0.6 nM; on BCL2 D111A it was 0.4 nM; on BCL2 F104I, 0.52 nM; on BCL2 D103Y, 0.46 nM. For the same compound, at BCLXL WT, the “TR_FRET EKI BCLxL/WT selectivty ratio” value was determined as 27.9. Also, the IC50 stood at 0.007 µM in the experiment with KMS-12-PE Bcl-2 WT and 0.0395 µM in the experiment on KMS-12-PE Bcl-2 G101V. Moreover, the “TR_FRET EKI G101V/WT selectivty ratio” value in the experiment with BCL2 G101V [2] is on record as 2.9. Moreover, the “Ratio (G101V/WT)” value in the experiment on KMS-12-PE Bcl-2 G101V is recorded as 5.6429.
In the case of `Cc1c(N(C(=O)c2cc(-c3cc4c(cc3C(=O)N3Cc5ccccc5C[C@H]3C)CN(C(=O)Cc3ccc(OCCN(C)C5CC5)nc3)CC4)n(C)c2C)c2ccc(O)cc2)cc(C#N)n1C` [Example 61, N-(5-cyano-1,2-dimethyl-1H-pyrrol-3-yl)-5-{2-[2-(6-{2-[cyclopropyl(methyl)amino]ethoxy}pyridin-3-yl)acetyl]-7-[(3R)-3-methyl-1,2,3,4-tetrahydroisoquinoline-2-carbonyl]-1,2,3,4-tetrahydroisoquinolin-6-yl}-N-(4-hydroxyphenyl)-1,2-dimethyl-1H-pyrrole-3-carboxamide], the Ki was determined as 1.5 nM on BCLXL WT; 0.04 nM at BCL2 WT; 0.2 nM on BCL2 G101V [1]; 0.18 nM at BCL2 D111A; 1.02 nM at BCL2 F104I; 0.13 nM at BCL2 D103Y. At BCLXL WT, the “TR_FRET EKI BCLxL/WT selectivty ratio” value is 35.7. Moreover, the IC50 is 0.0143 µM in the experiment on KMS-12-PE Bcl-2 WT and 0.0824 µM in the experiment on KMS-12-PE Bcl-2 G101V. Also, in the experiment with BCL2 G101V [2], the “TR_FRET EKI G101V/WT selectivty ratio” value came to 5.0. The “Ratio (G101V/WT)” value in the experiment on KMS-12-PE Bcl-2 G101V was 5.76.
Consider `Cc1c(N(C(=O)c2cc(-c3cc4c(cc3C(=O)N3Cc5ccccc5C[C@H]3C)CN(C(=O)Cc3ccc(OCCN5CCO[C@@H](C)C5)cc3)CC4)n(C)c2C)c2ccc(O)cc2)cc(C#N)n1C` [Example 57, N-(5-cyano-1,2-dimethyl-1H-pyrrol-3-yl)-N-(4-hydroxyphenyl)-1,2-dimethyl-5-{7-[(3R)-3-methyl-1,2,3,4-tetrahydroisoquinoline-2-carbonyl]-2-(2-{4-[2-((2S)-2-methylmorpholin-4-yl)ethoxy]phenyl}acetyl)-1,2,3,4-tetrahydroisoquinolin-6-yl}-1H-pyrrole-3-carboxamide], for which the Ki came out at 1.7 nM at BCLXL WT; 0.05 nM at BCL2 WT; 0.2 nM at BCL2 G101V [1]; 0.21 nM at BCL2 D111A; 0.47 nM at BCL2 F104I; 0.15 nM at BCL2 D103Y. The “TR_FRET EKI BCLxL/WT selectivty ratio” value on BCLXL WT is listed as 34.7. Also, the half-maximal inhibitory concentration (IC50) in the experiment on KMS-12-PE Bcl-2 WT amounted to 0.0048 µM; in the experiment on KMS-12-PE Bcl-2 G101V it was 0.0208 µM. The “TR_FRET EKI G101V/WT selectivty ratio” value in the experiment on BCL2 G101V [2] turned out to be 4.1. For the same compound, in the experiment on KMS-12-PE Bcl-2 G101V, the “Ratio (G101V/WT)” value turned out to be 4.32.

As usually defined, the IC50 is the concentration that gives 50% inhibition. High values mean a need for much substance, low ones inhibition by little substance.
